A short description of one data set: Solubility (Table 1). In kind it is physicochemical. As to conditions: thermodynamic from solid. As to the method:
(§1) For the determination of the octanol/water distribution coefficient (logD), the carrier-mediated distribution system (CAMDIS)-assay was used as described elsewhere.[38] Kinetic and thermodynamic solubilities were assessed using the lyophilization solubility assay (LYSA) and thermodynamic solubility assay (THESA), respectively. For the LYSA, the solubility of RNB- 61 in phosphate buffer at pH 6.5 from an evaporated 10 mM DMSO compound stock solution was measured. Two aliquots of the test compounds were dried and dissolved in phosphate buffer at pH 6.5. The solutions were then filtered and diluted (3 different dilution levels for each compound) before high throughput mass spectrometry (MS) analysis was performed in an Agilent RapidFire system. Each test compound was quantified using a 6-point calibration curve prepared with the same DMSO starting solution. For THESA, RNB-61 (8.6 mg per mL solvent/vehicle) was stirred in HPLC vials (9 × 12 × 32 mm, Waters) at 350 rpm for 15 h. The presence of solid particles was determined by microscopic analysis of 10 μL samples. If the active pharmacological ingredient (API) was completely dissolved, more solid API was added before stirring for another 15 h. This step was repeated for up to 96 h or until residual solid particles could be detected. Samples (0.5 mL) were transferred to Eppendorf Ultrafree filter tubes (Filter: PVDF 0.22 μm) and centrifuged at 14,500 rpm for 10 min. The filtrates were diluted in ethanol and analyzed by ultra-performance liquid chromatography (UPLC). Measurements were repeated in 0.05 M aqueous phosphate buffer and in fasted (FaSSIF) and fed (FeSSIF) simulated gastrointestinal fluids.

The nature of data set [1]: Parallel artificial membrane permeability (PAMPA) assay. The class given is in vitro ADME. To be noted: PAMPA, Table 1; read-out: PAMPA Peff. As to the method: The general permeability of the compound was assessed using the parallel artificial membrane permeability (PAMPA) assay and the permeability-glycoprotein (P-gp) assay was used to specifically test for brain penetration. PAMPA data were generated as previously reported by our group.[44] The P-gp assay, which evaluates the brain penetration of test compounds, was performed as described elsewhere.[45] Briefly, transfected porcine kidney epithelial (LLC-PK1) cells expressing human or mouse P-gp were cultured on 96-well semipermeable filter membrane plates (Millipore, Darmstadt, Germany). Cells formed a polarized monolayer with tight junctions that acted as a barrier between apical and basolateral compartments. P-gp was expressed in the apical-facing membrane of the monolayer (tightness confirmed using Lucifer yellow). To determine the unidirectional permeability (Papp) of RNB-61, samples were added separately to the apical (for A > B Papp) and basolateral (for B > A Papp) sides of the cell monolayer (i.e., donor compartments), and RNB-61 movement into the respective receiver compartments was measured by LC-MS/MS over a 3 h incubation at 37 °C. The effect of P-gp was measured by expressing the efflux ratio of the unidirectional A > B and B > A Papp values. The mean permeability (A > B and B > A Papp) was determined in the absence of P-gp via the addition of the selective P-gp inhibitor, tariquidar.

Data set [2] addresses T1, hCB1R (Homo sapiens, UniProt P21554). Nature of the data set: Competition binding assay with [3H]-CP55940, HEK cell membranes.
Procedure: (§3) Competition and saturation binding assays were performed using the radiolabeled CB1R/CB2R agonist [^3H]-CP55940 (PerkinElmer).
(§4) Binding reactions were terminated by vacuum filtration onto 0.5% polyethylenimine presoaked GF/B filter plates (Packard) using a Filtermate cell harvester followed by 6 brief washes with 0.3 mL/well of ice-cold wash buffer. Wash buffer comprising 50 mmol L^–1 Tris- HCl, 5 mmol L^–1 MgCl2, 2.5 mmol L^–1 EDTA, and 0.5% fatty acid-free BSA, pH 7.4. Plates were dried at 50 °C for 1 h and liquid scintillation counting was used to determine levels of bound radiolabel. IC50 values and Hill slopes were determined with a 4-parameter logistic model using ActivityBase (ID Business Solution, Guilford, UK) and pKi values were determined using the Cheng–Prusoff equation as shown below: [drawing 1] where S indicates the concentration of the substrate and Km depicts the affinity constant of the substrate.
Data set [3] addresses T1, hCB1R. Briefly: cell-based. As to conditions: Table 1; mean ± SD; read-out: EC50 hCB1R (cAMP assay). For orientation: Cyclic AMP is a second messenger, typically raised through Gs and lowered through Gi signalling.
In a further data set the target is human CB2R (Homo sapiens, UniProt P34972). Briefly: Competition binding assay with [3H]-CP55940, HEK cell membranes. To be noted: for hCB2R selectivity: Ki hCB1R over Ki hCB2R.
The nature of data set [4]: Microsomal clearance. The class given is in vitro ADME. As to conditions: human, human microsomes; Table 1.
The target of a further data set is human wild type CB2R (Homo sapiens, UniProt P34972). Briefly: cAMP assay in CHO cells. The class given is cell-based. Further details: expressed in transfected cells; host or cells: CHO cells.
Data set [5] in a line: Octanol/water distribution coefficient (logD), CAMDIS assay. To be noted: octanol/water; read-out: logD. In kind it is physicochemical. As to the method:
as §1

A short description of data set [6]: Microsomal clearance. To be noted: rat, rat microsomes, Table 1. In kind it is in vitro ADME.
Data set [7] has as its target T2, CB2R in wild-type rat spleen membranes (Rattus norvegicus, UniProt Q9QZN9).
T2 construct: from tissue; host or cells: rat spleen membranes
In kind it is binding. As to conditions: WT rat spleen membranes.

In data set [8] the test system is UUO-induced kidney fibrosis. Briefly: Unilateral ureteral obstruction (UUO) model of kidney fibrosis. The class given is in vivo, Sprague–Dawley rats. As to conditions: 32 mg kg^–1, day 5, time-course experiment. As for the experimental part:
(§2) In the ischemia/reperfusion (I/R) model of acute kidney injury (AKI),[47],[48] the compounds were administered orally by gavage to C57BL/6 mice 30 min before ischemia obtained by clamping both renal arteries and veins for 25 min, followed by 24 h of reperfusion. Mice were anesthetized using xylazine (10 mg kg^–1)/ketamine (100 mg kg^–1) injected intraperitoneally. Sham treated mice were treated identically except for the temporary closure of the renal vessels. After 24 h, under reanesthesia, plasma was taken for biomarker analysis. Thereafter, mice still in deep anesthesia were sacrificed by cervical dislocation. Creatinine, BUN (blood urea nitrogen), NGAL (neutrophil gelatinase-associated lipocalin), osteopontin, and KIM1 (kidney injury molecule-1) levels were determined using the following commercially available standard assays: creatinine: Roche Diagnostics 03263991, BUN: Roche Diagnostics 04460715, NGAL: BioPorto, Kit046 + Kit042, osteopontin: R&D Systems, MOST00, KIM-1: Abnova, KA1064. To assess fibrotic effects, we used the unilateral ureteral obstruction (UOO) model in Sprague–Dawley rats.[49] For the UOO model, rats were sacrificed after 5, 8, and 11 days and the percentage of PicroSirius Red positive areas (indicator of collagen III–I deposition) were measured in 4 μm histological cross sections of the kidney after 2% paraformaldehyde perfusion fixation and paraffin embedding. The extend of kidney fibrosis was quantified based on PicroSirius Red staining of 10 renal sections about 1 mm apart from each kidney. The collagen–III-I-positive pixel counts were determined in the cortical aspect of each kidney section from 10 optical fields using a 40× objective. As the total area analyzed was identical for all kidneys under investigation, the absolute number of pixels was used as the relevant readout. Vehicle treated animals received saline gavage only. The details of PicroSirius Red staining were previously described.[22]

The subject of data set [9] is renal I/R-induced acute kidney injury. Briefly: Ischemia/reperfusion (I/R) model of acute kidney injury. In kind it is in vivo, C57BL/6 mice. As for the experimental part:
as §2

Setting [10] is: Table 1, mean ± SD, read-out: EC50 hCB2R (cAMP assay).

≈ marks a conversion by molar mass, not a printed value. Where two headings read alike, the source gives them in different places. Where only a bound is given, the exact number is not on record here.

human CB2R, sequence (P34972 whole entry): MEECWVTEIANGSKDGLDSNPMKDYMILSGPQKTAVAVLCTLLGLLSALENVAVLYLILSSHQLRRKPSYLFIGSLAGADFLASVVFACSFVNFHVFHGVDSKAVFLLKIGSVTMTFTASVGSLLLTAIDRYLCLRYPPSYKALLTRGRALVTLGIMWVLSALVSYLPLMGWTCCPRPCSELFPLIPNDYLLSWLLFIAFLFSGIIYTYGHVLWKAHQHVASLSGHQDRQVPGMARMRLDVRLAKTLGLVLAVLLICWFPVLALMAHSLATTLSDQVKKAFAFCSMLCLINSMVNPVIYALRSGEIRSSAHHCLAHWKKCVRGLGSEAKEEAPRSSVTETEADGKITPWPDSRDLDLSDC
human wild type CB2R, sequence (P34972 whole entry): as above
T1 sequence (P21554 whole entry): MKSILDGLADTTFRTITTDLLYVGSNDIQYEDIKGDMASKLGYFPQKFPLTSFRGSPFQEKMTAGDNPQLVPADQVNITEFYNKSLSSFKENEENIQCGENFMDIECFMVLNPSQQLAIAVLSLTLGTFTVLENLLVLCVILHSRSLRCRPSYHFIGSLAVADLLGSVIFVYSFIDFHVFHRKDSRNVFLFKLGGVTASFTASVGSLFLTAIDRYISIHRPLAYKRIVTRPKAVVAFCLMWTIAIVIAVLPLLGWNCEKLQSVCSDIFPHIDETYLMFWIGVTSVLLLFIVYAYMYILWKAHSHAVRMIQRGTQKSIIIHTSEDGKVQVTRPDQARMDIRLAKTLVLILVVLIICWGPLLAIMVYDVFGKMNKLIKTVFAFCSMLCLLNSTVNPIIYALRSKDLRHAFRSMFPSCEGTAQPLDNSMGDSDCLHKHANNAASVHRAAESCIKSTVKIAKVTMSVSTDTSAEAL
T2 sequence (Q9QZN9 whole entry): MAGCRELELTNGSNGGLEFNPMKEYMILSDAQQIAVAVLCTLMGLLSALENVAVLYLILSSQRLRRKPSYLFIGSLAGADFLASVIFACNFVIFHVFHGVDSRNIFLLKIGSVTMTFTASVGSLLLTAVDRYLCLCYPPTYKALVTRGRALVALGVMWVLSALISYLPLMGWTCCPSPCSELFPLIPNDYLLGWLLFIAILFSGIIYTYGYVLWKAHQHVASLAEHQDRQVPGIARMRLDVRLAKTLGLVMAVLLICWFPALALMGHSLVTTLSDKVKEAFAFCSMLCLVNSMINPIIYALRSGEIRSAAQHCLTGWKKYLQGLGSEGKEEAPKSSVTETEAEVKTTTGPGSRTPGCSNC
Procedure for human CB2R: as §3, §4

For orientation: solubility means how much of the substance goes into solution per volume. A low value points to a poorly soluble substance. The Ki is a dissociation constant, usually derived from enzyme kinetics or from competition with a known ligand. A lower Ki goes with higher affinity. Broadly, the EC50 is the concentration giving half of the maximal effect. A word on the microsomal CLint: it is a measure of how fast metabolising enzymes remove a compound, apart from limits set by blood flow. Higher therefore signals rapid turnover. Usually logD stands for the decadic logarithm of the distribution of all forms, ionised or not, between an organic phase and buffer at a given pH. On to `COCCOCCc1cc(NC(=O)C(C)(C)S(=O)(=O)C2CCOCC2)on1` [RNB-70], for which the solubility in “Solubility (Table 1)” is more than 510 µg/mL. Moreover, in data set [1], the Papp is 5.9 ×10⁻⁶ cm/s. At hCB1R [2], this compound yielded a Ki of more than 10000 nM. In addition, the EC50 on hCB1R [3] was more than 10000 nM; at human wild type CB2R (setting [10]), 13 ± 2.58 nM. In addition, the hCB2R selectivity on human CB2R was more than 559. In “Microsomal clearance [4]”, this compound showed a microsomal CLint of less than 10 µL/min/mg. The logD in data set [5] amounted to 0.8.

As for `N#Cc1cc(NC(=O)CCc2nc(-c3ccc(F)cc3Cl)no2)cnc1CC(F)(F)F` [RNB-73], the solubility in “Solubility (Table 1)” was less than 1 µg/mL. Also, the Papp in data set [1] amounted to 7.4 ×10⁻⁶ cm/s. On hCB1R [2], the Ki was more than 10000 nM. Moreover, the results for the EC50 at hCB1R [3] and on human wild type CB2R (setting [10]) were more than 10000 nM and 7.13 ± 2.19 nM, respectively. This compound also displayed a hCB2R selectivity at human CB2R of more than 153. Moreover, the microsomal CLint in “Microsomal clearance [4]” and in “Microsomal clearance [6]” was less than 10 µL/min/mg throughout. For the same compound, in [5], the logD amounted to 3.86.

In “Solubility (Table 1)”, `CC(C)(Oc1ccc(C(F)(F)F)cn1)C(=O)Cc1cc(C(C)(C)C)no1` [RNB-90] gave a solubility of less than 1 µg/mL. Also, the Papp in [1] was 2 ×10⁻⁶ cm/s. Further, the results for the EC50 at hCB1R [3] and on human wild type CB2R (setting [10]) were 19.6 ± 1.18 nM and 0.26 ± 0.05 nM, respectively. For the same compound, the hCB2R selectivity at human CB2R was determined as 307. The values for the intrinsic clearance (microsomal CLint) in the data set “Microsomal clearance [4]” and in “Microsomal clearance [6]” were 15 µL/min/mg and 81 µL/min/mg, respectively. Also, the logD in data set [5] was 4.07.

The compound `CC1(C)C(C(=O)c2cn(CCN3CCOCC3)c3ccccc23)C1(C)C` [RNB-92] showed a solubility in the data set “Solubility (Table 1)” of 2 µg/mL (≈ 5.64 µM). Besides, the microsomal CLint in “Microsomal clearance [4]” came to 420 µL/min/mg; in the data set “Microsomal clearance [6]”, 730 µL/min/mg. Besides, the EC50 at human wild type CB2R amounted to 0.17 ± 0.01 nM. In [5], the log distribution coefficient (logD) amounted to 3.43.

Regarding `Cc1c(C(=O)NN2CCCCC2)nn(-c2ccc(Cl)cc2Cl)c1-c1ccc(Cl)cc1` [SR1], the “reduction of [3H]-RNB-61 radioactivity” value in data set [7] (competitor 1 μM) is on record as “did not result in a significant difference”.

Regarding `Cc1c(C(=O)c2cccc3ccccc23)c2cccc3c2n1[C@H](CN1CCOCC1)CO3` [WIN55,212–2], in data set [7] (competitor 10 μM), the “reduction of [3H]-RNB-61 radioactivity” value is “significant reduction”.

Regarding `CCOC(=O)[C@H](CCc1ccccc1)N[C@@H](C)C(=O)N1CCC[C@H]1C(=O)O` [enalapril, reference compound], in [8], the “collagen–III-I positive area vs vehicle” value is given as “No significant difference”.

For `Oc1ccc(C2CNCCc3c2cc(O)c(O)c3Cl)cc1` (centres unmarked) [fenoldopam, reference compound], in data set [9] (20 mg kg^–1), the “reduction of BUN compared to vehicle” value is on record as 39% and the “reduction of plasma creatinine compared to vehicle” value was 55%.

`CN(C(=O)c1cc(C(F)(F)F)ccc1OCC(C)(C)O)c1cc(C(C)(C)C)nn1CC1CCC1` [regioisomer of RNB-61]: the “activity (data not shown)” value at human CB2R (assay not specified) was “inactive”.

As for `CC1(C)CC(O)CC(C)(C)N1[O]` [tempol, reference compound], in [9] (50 mg kg^–1), the “reduction of BUN compared to vehicle” value was found to be 26%, the “reduction of plasma KIM-1 compared to vehicle” value was determined as 57%, the “reduction of plasma NGAL compared to vehicle” value amounted to 43% and the “reduction of plasma creatinine compared to vehicle” value was 35%. In data set [9] (50 mg kg^–1), the “reduction of plasma osteopontin compared to vehicle” value stood at 49%.

The values are drawn from PMC11320734 (ACS Pharmacology & Translational Science, 2024).
